Ends that are not written are not given here.
Test system: wild-type C57BL/6 mice stressed with angiotensin II+isoproterenol infusion (heart failure model)
Assay: Orexin A minipump infusion in mice stressed with angiotensin II + isoproterenol, echocardiography
Type: in vivo, mouse
Protocol: Finally, to assess the potential of HCRTR2 as a novel therapeutic target for heart failure, wild-type mice were infused with saline (n=6) or the HCRTR2 agonist orexin A (n=7) for four weeks. At week two, all mice underwent infusion of angiotensin II and isoproterenol, neurohormones that mimic human heart failure. Echocardiography was performed blinded to drug infusion status at baseline, 2, 3 and 4 weeks (FIG. 3H).
Experimental mice were anesthetized with 1.5% isoflurane by a facemask. The Alzet osmotic minipumps (Model 2002 or 2004) from the Alzet Corporation (Cupertino, Calif., USA) were implanted subcutaneously in the back of mice, posterior to the scapulae. 14-week-old C57BL/6 mice were treated with either saline or orexin A (50 μg/kg/day) infusions using an Alzet (Cupertino, Calif.) osmotic minipump model 2004 (200 μl reservoir, 28-day release at 0.25 μl/hr) for a total of 4 weeks. At week 2, all mice were treated with angiotensin II (1.4 mg/kg/day) plus isoproterenol (15 mg/kg/day) infusion using an additional Alzet osmotic minipump, model 2002 (200 μl reservoir, 14-day release at 0.5 μl/hr) for two weeks, starting 2 weeks after initiation of the saline or orexin A infusion. Mice had echocardiography performed at baseline and weeks 2, 3 and 4.
For noninvasive echocardiography, mice were anesthetized with isoflurane via nose cone (maintenance: 1.5% isoflurane mixed with 1 L/minute 100% medical oxygen to obtain heart rate of 450±50 beats per minute). Mouse body temperature was monitored with a rectal thermometer. […]
Two-dimensional imaging (B-mode) was used to obtain a view of left and right ventricular movement during diastole and systole along the parasternal short axis. […] Early (E) wave was measured as the peak velocity during filling of the ventricle, and atrial (A) wave was measured as the peak velocity during atrial contraction, at the end of diastole. […] All data and images were saved and analyzed using a Vevo 2100 advanced cardiovascular package software with a semi-automated quantification of cardiac function (V 1.4.0 VisualSonics, Toronto, ON, Canada).

Substance: orexin A (QPLPDCCRQKTCSCRLYELLHGAGNHAAGILTL; ends and bridges not checked; cysteine pairing not given here; UniProt O43612 34-66, looked up) [HCRTR2 agonist]
- Ejection Fraction (WT mice, orexin A 50 μg/kg/day infusion for 4 weeks, angiotensin II+isoproterenol during latter 2 weeks, week 4, n=7, p=0.045 vs saline): 56.6%+/−4.5
- heart function in a mouse model of heart failure (summary statement): successful in rescuing heart function
- systolic function compared to saline controls (wild-type mice, four weeks infusion, angiotensin II and isoproterenol from week two, p=0.045): better systolic function compared to controls

From patent publication US10172916B2, “Methods of treating heart failure with agonists of hypocretin receptor 2” (The Board of Trustees of the Leland Stanford Junior …, priority 2013, dated 2019)
